Laboratory results reported in patent US9109004B2, “Progesterone receptor antagonists” (Bayer Intellectual Property GmbH, priority 2010, dated 2015).

Experiments:
[1] = biological target: T1, human progesterone receptor A (Homo sapiens, UniProt P06401); experiment: Progesterone-receptor-antagonistic action in stably transfected SK-N-MC cells, MTV-LUC reporter (PR-A); type: cell-based; settings: antagonistic potency vs 0.1 nmol/l promegestone, 24 hours, luciferase
T1 construct: expressed in transfected cells; host or cells: SK-N-MC human neuroblastoma cells, stably transfected
T1 sequence (P06401 1-769 isoform P06401-2): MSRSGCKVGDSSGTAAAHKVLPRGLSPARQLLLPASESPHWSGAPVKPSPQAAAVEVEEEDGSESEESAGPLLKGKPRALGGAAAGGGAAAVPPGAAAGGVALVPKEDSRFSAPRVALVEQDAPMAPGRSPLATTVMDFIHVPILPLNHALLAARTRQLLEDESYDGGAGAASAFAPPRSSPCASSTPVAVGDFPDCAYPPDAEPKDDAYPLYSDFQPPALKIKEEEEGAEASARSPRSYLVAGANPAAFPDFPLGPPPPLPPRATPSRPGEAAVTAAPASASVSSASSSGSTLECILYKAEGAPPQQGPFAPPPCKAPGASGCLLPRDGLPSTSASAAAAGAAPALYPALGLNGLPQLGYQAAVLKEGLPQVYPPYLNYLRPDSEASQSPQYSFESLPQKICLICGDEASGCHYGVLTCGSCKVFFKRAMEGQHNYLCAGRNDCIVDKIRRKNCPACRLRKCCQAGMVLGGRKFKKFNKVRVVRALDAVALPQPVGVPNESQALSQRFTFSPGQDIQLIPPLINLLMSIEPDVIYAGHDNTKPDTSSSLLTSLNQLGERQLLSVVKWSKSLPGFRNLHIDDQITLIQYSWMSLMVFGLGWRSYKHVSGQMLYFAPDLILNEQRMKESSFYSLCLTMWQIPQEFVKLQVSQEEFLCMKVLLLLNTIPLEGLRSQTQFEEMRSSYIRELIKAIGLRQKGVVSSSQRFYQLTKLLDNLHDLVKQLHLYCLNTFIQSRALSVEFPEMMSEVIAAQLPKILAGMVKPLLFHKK
Outline: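 SK-N-MC neuroblastoma cells stably expressing human PR-B or PR-A plus MMTV-LUC reporter, treated 24 h with 0.1 nmol/l promegestone plus test compound at 0.01 nmol/l–1 μmol/l. Luciferase in lysates read as RLU; values as % efficacy and IC50.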

[2] = biological target: T2, human progesterone receptor B (Homo sapiens, UniProt P06401); experiment: Progesterone-receptor-antagonistic action in stably transfected SK-N-MC cells, MTV-LUC reporter (PR-B); type: cell-based; settings: antagonistic potency vs 0.1 nmol/l promegestone, 24 hours, luciferase
T2 construct: expressed in transfected cells; host or cells: SK-N-MC human neuroblastoma cells, stably transfected
T2 sequence (P06401 1-933): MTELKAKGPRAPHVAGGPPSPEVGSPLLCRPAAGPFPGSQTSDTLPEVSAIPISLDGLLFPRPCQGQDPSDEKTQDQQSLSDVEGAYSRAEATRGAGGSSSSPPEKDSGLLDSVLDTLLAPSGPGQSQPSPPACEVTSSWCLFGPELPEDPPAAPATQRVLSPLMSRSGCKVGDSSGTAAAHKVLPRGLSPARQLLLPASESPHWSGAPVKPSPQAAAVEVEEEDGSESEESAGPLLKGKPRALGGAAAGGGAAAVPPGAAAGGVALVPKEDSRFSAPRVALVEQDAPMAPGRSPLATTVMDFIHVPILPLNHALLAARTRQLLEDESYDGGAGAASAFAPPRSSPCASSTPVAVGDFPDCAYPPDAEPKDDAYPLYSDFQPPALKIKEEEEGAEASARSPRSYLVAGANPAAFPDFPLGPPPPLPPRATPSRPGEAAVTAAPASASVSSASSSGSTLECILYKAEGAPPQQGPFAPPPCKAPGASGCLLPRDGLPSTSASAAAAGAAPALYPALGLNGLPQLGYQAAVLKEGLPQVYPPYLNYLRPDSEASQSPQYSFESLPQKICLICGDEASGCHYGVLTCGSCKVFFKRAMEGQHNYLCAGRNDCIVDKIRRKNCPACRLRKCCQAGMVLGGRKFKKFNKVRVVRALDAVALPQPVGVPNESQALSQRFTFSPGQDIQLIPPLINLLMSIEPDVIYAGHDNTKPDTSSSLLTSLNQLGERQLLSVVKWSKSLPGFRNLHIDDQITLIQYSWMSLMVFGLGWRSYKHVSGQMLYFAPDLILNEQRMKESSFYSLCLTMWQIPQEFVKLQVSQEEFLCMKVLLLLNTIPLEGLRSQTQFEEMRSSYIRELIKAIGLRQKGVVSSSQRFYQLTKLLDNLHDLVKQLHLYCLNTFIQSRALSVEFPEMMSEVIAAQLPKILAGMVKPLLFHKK
Description: Progesterone-Receptor-Antagonistic Action in Stable Transfectants of Human Neuroblastoma Cells (SK-N-MC Cells) with the Human Progesterone A or Progesterone B Receptor and an MTV-LUC Reporter Construct
SK-N-MC cells (human neuroblastoma cells) that have been stably transfected with plasmids that express the human progesterone receptor B (pRChPR-B-neo) or the human progesterone receptor A (pRChPR-A-neo) and a reporter construct (pMMTV-LUC), were incubated for 24 hours either in the absence (negative control) or in the presence of increasing amounts of the particular test compound (0.01 nmol/l, 0.1 nmol/l, 1 nmol/l, 10 nmol/l, 100 nmol/l and 1 μmol/l), to determine the agonistic efficacy. As positive control of reporter gene induction, the cells were treated with the synthetic gestagen promegestone (0.01 nmol/l, 0.1 nmol/l, 1 nmol/l, 10 nmol/l, 100 nmol/l and 1 μmol/l). For determination of the antagonistic activity, the cells were treated with 0.1 nmol/l promegestone and additionally with increasing amounts of the particular test compound (0.01 nmol/l, 0.1 nmol/l, 1 nmol/l, 10 nmol/l, 100 nmol/l and 1 μmol/l). The activity of the reporter gene LUC (LUC=luciferase) was determined in the cell lysates and was measured as RLU (relative light units). All measured values are given as % efficacy and as EC50 or IC50 concentrations.

SMILES | IC50 [1] [nM] | IC50 [2] [nM]
CN1CCN(C(=O)c2ccc([C@H]3C[C@@]4(C)[C@@H](CC[C@@]4(O)C(F)(F)C(F)(F)F)[C@@H]4CCC5=CC(=O)CCC5=C43)cc2)CC1 [Example 3, (11β,17β)-17-hydroxy-11-{4-[(4-methylpiperazin-1-yl)carbonyl]phenyl}-17-(pentafluoroethyl)estra-4,9-dien-3-one] | 24 | 44
COC(=O)c1ccccc1NC(=O)c1ccc([C@H]2C[C@@]3(C)[C@@H](CC[C@@]3(O)C(F)(F)C(F)(F)F)[C@@H]3CCC4=CC(=O)CCC4=C32)cc1 [Example 10, methyl-2-({4-[(11β,17β)-17-hydroxy-3-oxo-17-(pentafluoroethyl)estra-4,9-dien-11-yl]benzoyl}amino)benzoate] | 0.7 | 1
C[C@]12C[C@H](c3ccc(C(=O)N4CCCCC4)cc3)C3=C4CCC(=O)C=C4CC[C@H]3[C@@H]1CC[C@@]2(O)C(F)(F)C(F)(F)F [Example 5, (11β,17β)-17-hydroxy-17-(pentafluoroethyl)-11-[4-(piperidin-1-ylcarbonyl)phenyl]estra-4,9-dien-3-one] | 4.7 | 5
CN(C)CCN(C)C(=O)c1ccc([C@H]2C[C@@]3(C)[C@@H](CC[C@@]3(O)C(F)(F)C(F)(F)F)[C@@H]3CCC4=CC(=O)CCC4=C32)cc1 [Example 9, N-[2-(dimethylamino)ethyl]-4-[(11β,17β)-17-hydroxy-3-oxo-17-(pentafluoroethyl)estra-4,9-dien-11-yl]-N-methylbenzamide] | 23 | 18
COC(=O)C1CCN(C(=O)c2ccc([C@H]3C[C@@]4(C)[C@@H](CC[C@@]4(O)C(F)(F)C(F)(F)F)[C@@H]4CCC5=CC(=O)CCC5=C43)cc2)CC1 [Example 6, methyl-1-{4-[(11β,17β)-17-hydroxy-3-oxo-17-(pentafluoroethyl)estra-4,9-dien-11-yl]benzoyl}piperidine-4-carboxylate] | 9.1 | 11
CN(C)CCNC(=O)c1ccc([C@H]2C[C@@]3(C)[C@@H](CC[C@@]3(O)C(F)(F)C(F)(F)F)[C@@H]3CCC4=CC(=O)CCC4=C32)cc1 [Example 7, N-[2-(dimethylamino)ethyl]-4-[(11β,17β)-17-hydroxy-3-oxo-17-(pentafluoroethyl)estra-4,9-dien-11-yl]benzamide] | 54 | 30
CN(C)C(=O)c1ccc([C@H]2C[C@@]3(C)[C@@H](CC[C@@]3(O)C(F)(F)C(F)(F)F)[C@@H]3CCC4=CC(=O)CCC4=C32)cc1 [Example 2, 4-[(11β,17β)-17-Hydroxy-3-oxo-17-(pentafluoroethyl)estra-4,9-dien-11-yl]-N,N-dimethylbenzamide] | 2.3 | 1.2
CN(C)CCCNC(=O)c1ccc([C@H]2C[C@@]3(C)[C@@H](CC[C@@]3(O)C(F)(F)C(F)(F)F)[C@@H]3CCC4=CC(=O)CCC4=C32)cc1 [Example 8, N-[3-(dimethylamino)propyl]-4-[(11β,17β)-17-hydroxy-3-oxo-17-(pentafluoroethyl)estra-4,9-dien-11-yl]benzamide] | 47 | 33
C[C@]12C[C@H](c3ccc(C(=O)N4CCC(C(=O)O)CC4)cc3)C3=C4CCC(=O)C=C4CC[C@H]3[C@@H]1CC[C@@]2(O)C(F)(F)C(F)(F)F [Example 75, 1-{4-[(11β,17β)-17-Hydroxy-3-oxo-17-(pentafluoroethyl)estra-4,9-dien-11-yl]benzoyl}piperidine-4-carboxylic acid] | 23 | 10
C[C@]12C[C@H](c3ccc(C(=O)N4CCNCC4)cc3)C3=C4CCC(=O)C=C4CC[C@H]3[C@@H]1CC[C@@]2(O)C(F)(F)C(F)(F)F [Example 73, (11β,17β)-17-Hydroxy-17-(pentafluoroethyl)-11-[4-(piperazin-1-ylcarbonyl)phenyl]estra-4,9-dien-3-one] | 47 | 120
C[C@]12C[C@H](c3ccc(C(=O)N4CCN(S(C)(=O)=O)CC4)cc3)C3=C4CCC(=O)C=C4CC[C@H]3[C@@H]1CC[C@@]2(O)C(F)(F)C(F)(F)F [Example 67, (11β,17β)-17-hydroxy-11-(4-{[4-(methylsulphonyl)piperazin-1-yl]carbonyl}phenyl)-17-(pentafluoroethyl)estra-4,9-dien-3-one] | 6.3 | –
COc1ccc(NC(=O)c2ccc([C@H]3C[C@@]4(C)[C@@H](CC[C@@]4(O)C(F)(F)C(F)(F)F)[C@@H]4CCC5=CC(=O)CCC5=C43)cc2)cc1 [Example 25, 4-[(11β,17β)-17-hydroxy-3-oxo-17-(pentafluoroethyl)estra-4,9-dien-11-yl]-N-(4-methoxyphenyl)benzamide] | 11.4 | –
C[C@]12C[C@H](c3ccc(C(=O)Nc4ccccc4)cc3)C3=C4CCC(=O)C=C4CC[C@H]3[C@@H]1CC[C@@]2(O)C(F)(F)C(F)(F)F [Example 22, 4-[(11β,17β)-17-hydroxy-3-oxo-17-(pentafluoroethyl)estra-4,9-dien-11-yl]-N-phenylbenzamide] | 39 | –
C[C@]12C[C@H](c3ccc(C(=O)N4CCCC4)cc3)C3=C4CCC(=O)C=C4CC[C@H]3[C@@H]1CC[C@@]2(O)C(F)(F)C(F)(F)F [Example 15, (11β,17β)-17-hydroxy-17-(pentafluoroethyl)-11-[4-(pyrrolidin-1-ylcarbonyl)phenyl]estra-4,9-dien-3-one] | 38 | –
C[C@]12C[C@H](c3ccc(C(=O)Nc4ccc(C(=O)Nc5ccccc5)cc4)cc3)C3=C4CCC(=O)C=C4CC[C@H]3[C@@H]1CC[C@@]2(O)C(F)(F)C(F)(F)F [Example 60, 4-[(11β,17β)-17-hydroxy-3-oxo-17-(pentafluoroethyl)estra-4,9-dien-11-yl]-N-[4-(phenylcarbamoyl)phenyl]benzamide] | 0.39 | –
C[C@]12C[C@H](c3ccc(C(=O)NCc4ccc(Cl)cc4)cc3)C3=C4CCC(=O)C=C4CC[C@H]3[C@@H]1CC[C@@]2(O)C(F)(F)C(F)(F)F [Example 36, N-(4-chlorobenzyl)-4-[(11β,17β)-17-hydroxy-3-oxo-17-(pentafluoroethyl)estra-4,9-dien-11-yl]benzamide] | 20 | –
